According to patent US9932314B2, “Pyrazole compounds and their use as T-type calcium channel blockers” (IDORSIA PHARMACEUTICALS LTD, priority 2015, dated 2018):

Molecular target: T1, voltage-dependent T-type calcium channel subunit alpha-1G (Cav3.2) (Homo sapiens, UniProt O95180)
T1 construct: expressed in transfected cells; host or cells: HEK293
Experiment: FLIPR calcium flux assay, HEK293 cells recombinantly expressing Cav3.2
Type: cell-based
Conditions: Cav3.2-channel, Fluo-4-AM, 3 min incubation, stimulation with 10 mM CaCl2
Summary of the method: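 Calcium influx was triggered by adding CaCl2 to 10 mM final, 3 min after compounds in tetraethylammonium-based buffer, pH 7.2, reached Fluo-4-AM-loaded recombinant HEK293 cells. The integrated kinetic fluorescence signal per concentration gave concentration-response curves by non-linear sigmoidal regression.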

T1 sequence (O95180 whole entry): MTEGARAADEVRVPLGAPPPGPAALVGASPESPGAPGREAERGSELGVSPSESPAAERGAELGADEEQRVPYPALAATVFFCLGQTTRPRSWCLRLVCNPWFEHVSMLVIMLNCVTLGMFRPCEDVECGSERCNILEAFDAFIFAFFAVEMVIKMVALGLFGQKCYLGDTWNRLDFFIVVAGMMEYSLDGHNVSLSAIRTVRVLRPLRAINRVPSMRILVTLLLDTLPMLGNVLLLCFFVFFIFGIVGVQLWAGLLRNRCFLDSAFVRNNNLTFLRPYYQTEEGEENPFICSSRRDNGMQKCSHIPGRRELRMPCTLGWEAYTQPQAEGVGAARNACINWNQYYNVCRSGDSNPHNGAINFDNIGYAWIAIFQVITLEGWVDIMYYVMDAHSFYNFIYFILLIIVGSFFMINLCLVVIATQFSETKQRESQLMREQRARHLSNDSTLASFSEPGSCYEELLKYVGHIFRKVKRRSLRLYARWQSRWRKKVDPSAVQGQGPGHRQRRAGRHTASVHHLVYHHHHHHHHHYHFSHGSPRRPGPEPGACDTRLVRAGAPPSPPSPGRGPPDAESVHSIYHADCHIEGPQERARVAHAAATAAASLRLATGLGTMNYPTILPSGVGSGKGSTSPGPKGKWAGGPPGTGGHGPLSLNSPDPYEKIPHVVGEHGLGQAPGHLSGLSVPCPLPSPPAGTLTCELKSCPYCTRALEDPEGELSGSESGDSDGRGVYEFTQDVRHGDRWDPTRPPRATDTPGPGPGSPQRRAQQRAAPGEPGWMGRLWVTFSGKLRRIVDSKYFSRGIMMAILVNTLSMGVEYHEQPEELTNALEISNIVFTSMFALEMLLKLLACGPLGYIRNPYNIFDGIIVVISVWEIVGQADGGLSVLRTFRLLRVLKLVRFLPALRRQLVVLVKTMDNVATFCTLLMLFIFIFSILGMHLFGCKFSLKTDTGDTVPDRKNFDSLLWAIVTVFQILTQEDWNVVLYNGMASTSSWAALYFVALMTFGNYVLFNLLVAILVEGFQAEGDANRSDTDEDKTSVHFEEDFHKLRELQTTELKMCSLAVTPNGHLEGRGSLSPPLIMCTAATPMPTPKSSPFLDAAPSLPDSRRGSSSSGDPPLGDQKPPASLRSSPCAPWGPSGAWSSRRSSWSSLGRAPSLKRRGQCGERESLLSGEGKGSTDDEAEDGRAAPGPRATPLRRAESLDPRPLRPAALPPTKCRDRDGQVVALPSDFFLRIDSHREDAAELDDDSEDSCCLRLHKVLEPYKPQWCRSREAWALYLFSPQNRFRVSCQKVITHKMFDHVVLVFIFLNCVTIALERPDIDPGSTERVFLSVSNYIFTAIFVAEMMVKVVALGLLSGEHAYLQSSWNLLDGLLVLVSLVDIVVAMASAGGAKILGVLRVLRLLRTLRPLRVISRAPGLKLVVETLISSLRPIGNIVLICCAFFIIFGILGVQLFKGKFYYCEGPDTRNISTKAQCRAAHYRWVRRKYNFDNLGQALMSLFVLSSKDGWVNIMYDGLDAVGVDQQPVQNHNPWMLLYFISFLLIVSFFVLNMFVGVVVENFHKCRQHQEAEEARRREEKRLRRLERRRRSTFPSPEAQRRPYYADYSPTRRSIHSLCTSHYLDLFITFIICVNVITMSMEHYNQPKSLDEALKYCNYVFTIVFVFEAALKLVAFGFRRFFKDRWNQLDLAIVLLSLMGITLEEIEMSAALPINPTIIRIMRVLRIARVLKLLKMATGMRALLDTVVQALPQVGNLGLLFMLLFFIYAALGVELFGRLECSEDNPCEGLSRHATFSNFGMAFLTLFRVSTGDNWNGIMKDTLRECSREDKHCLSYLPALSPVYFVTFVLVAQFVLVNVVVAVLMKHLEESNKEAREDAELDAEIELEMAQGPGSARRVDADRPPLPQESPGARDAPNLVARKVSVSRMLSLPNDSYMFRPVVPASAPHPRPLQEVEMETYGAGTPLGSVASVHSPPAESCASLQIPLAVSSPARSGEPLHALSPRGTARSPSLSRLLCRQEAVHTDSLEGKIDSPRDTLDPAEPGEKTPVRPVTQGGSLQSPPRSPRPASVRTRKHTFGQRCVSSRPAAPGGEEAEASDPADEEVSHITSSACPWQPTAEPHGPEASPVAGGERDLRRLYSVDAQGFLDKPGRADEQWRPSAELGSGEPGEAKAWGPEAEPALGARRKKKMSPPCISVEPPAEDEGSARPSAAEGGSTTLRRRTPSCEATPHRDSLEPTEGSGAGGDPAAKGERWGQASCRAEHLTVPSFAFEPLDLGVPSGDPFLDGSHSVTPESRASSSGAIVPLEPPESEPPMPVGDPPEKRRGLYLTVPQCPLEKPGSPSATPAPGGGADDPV

Row | Compound | IC50 [nM]
1 | COC1(c2ccc(CC(=O)Nc3ccn(Cc4ccc(F)c(F)c4)n3)cc2)COC1 [Example 231, N-[1-(3,4-Difluoro-benzyl)-1H-pyrazol-3-yl]-2-[4-(3-methoxy-oxetan-3-yl)-phenyl]-acetamide] | 21
2 | Cc1nc(-c2ccc(CC(=O)Nc3ccn(Cc4ccc(F)c(F)c4)n3)cc2)no1 [Example 235, N-[1-(3,4-Difluoro-benzyl)-1H-pyrazol-3-yl]-2-[4-(5-methyl-[1,2,4]oxadiazol-3-yl)-phenyl]-acetamide] | 42
3 | O=C(Cc1ccc(OCC2COC2)cc1)Nc1ccn(Cc2ccc(F)c(F)c2)n1 [Example 242, N-[1-(3,4-Difluoro-benzyl)-1H-pyrazol-3-yl]-2-[4-(oxetan-3-ylmethoxy)-phenyl]-acetamide] | 39
4 | CC1(COc2ccc(CC(=O)Nc3ccn(Cc4ccc(F)c(F)c4)n3)cc2)CC(F)(F)C1 [Example 243, N-[1-(3,4-Difluoro-benzyl)-1H-pyrazol-3-yl]-2-[4-(3,3-difluoro-1-methyl-cyclobutylmethoxy)-phenyl]-acetamide] | 37
5 | O=C(Cc1ccc(OCC2CC(F)(F)C2)cc1)Nc1ccn(Cc2ccc(F)c(F)c2)n1 [Example 244, N-[1-(3,4-Difluoro-benzyl)-1H-pyrazol-3-yl]-2-[4-(3,3-difluoro-cyclobutylmethoxy)-phenyl]-acetamide] | 33
6 | O=C(Cc1ccc(OCC2(F)COC2)cc1)Nc1ccn(Cc2ccc(F)c(F)c2)n1 [Example 245, N-[1-(3,4-Difluoro-benzyl)-1H-pyrazol-3-yl]-2-[4-(3-fluoro-oxetan-3-ylmethoxy)-phenyl]-acetamide] | 30
7 | N#Cc1ccc(Cn2ccc(NC(=O)Cc3ccc(C4(F)COC4)cc3)n2)nc1 [Example 246, N-[1-(5-Cyano-pyridin-2-ylmethyl)-1H-pyrazol-3-yl]-2-[4-(3-fluoro-oxetan-3-yl)-phenyl]-acetamide] | 705
8 | N#Cc1ccc(Cn2ccc(NC(=O)Cc3ccc(OC4COC4)cc3)n2)nc1 [Example 247, N-[1-(5-Cyano-pyridin-2-ylmethyl)-1H-pyrazol-3-yl]-2-[4-(oxetan-3-yloxy)-phenyl]-acetamide] | 2590
9 | Cn1ncc2cc(CC(=O)Nc3ccn(Cc4ccc(C#N)cn4)n3)ccc21 [Example 249, N-[1-(5-Cyano-pyridin-2-ylmethyl)-1H-pyrazol-3-yl]-2-(1-methyl-1H-indazol-5-yl)-acetamide] | 295
10 | N#Cc1ccc(Cn2ccc(NC(=O)Cc3ccc(C4(F)COC4)cc3)n2)cc1 [Example 250, N-[1-(4-Cyano-benzyl)-1H-pyrazol-3-yl]-2-[4-(3-fluoro-oxetan-3-yl)-phenyl]-acetamide] | 127
11 | N#Cc1ccc(Cn2ccc(NC(=O)Cc3ccc(C4(F)COC4)cc3)n2)cc1F [Example 253, N-[1-(4-Cyano-3-fluoro-benzyl)-1H-pyrazol-3-yl]-2-[4-(3-fluoro-oxetan-3-yl)-phenyl]-acetamide] | 57
12 | Cn1ncc2cc(CC(=O)Nc3ccn(Cc4ccc(C#N)c(F)c4)n3)ccc21 [Example 255, N-[1-(4-Cyano-3-fluoro-benzyl)-1H-pyrazol-3-yl]-2-(1-methyl-1H-indazol-5-yl)-acetamide] | 52
13 | N#Cc1ccc(Cn2ccc(NC(=O)Cc3ccc(OCC4(F)COC4)cc3)n2)cc1F [Example 257, N-[1-(4-Cyano-3-fluoro-benzyl)-1H-pyrazol-3-yl]-2-[4-(3-fluoro-oxetan-3-ylmethoxy)-phenyl]-acetamide] | 76
14 | Cc1cn(C)c2cc(CC(=O)Nc3ccn(Cc4ccc(F)c(F)c4)n3)ccc12 [Example 259, N-[1-(3,4-Difluoro-benzyl)-1H-pyrazol-3-yl]-2-(1,3-dimethyl-1H-indol-6-yl)-acetamide] | 4.1
15 | N#Cc1ccc(Cn2ccc(NC(=O)Cc3ccc(OC4CC(F)(F)C4)cc3)n2)cc1F [Example 261, N-[1-(4-Cyano-3-fluoro-benzyl)-1H-pyrazol-3-yl]-2-[4-(3,3-difluoro-cyclobutoxy)-phenyl]-acetamide] | 15
16 | N#Cc1ccc(Cn2ccc(NC(=O)Cc3ccc(OCC4COC4)cc3)n2)cc1F [Example 262, N-[1-(4-Cyano-3-fluoro-benzyl)-1H-pyrazol-3-yl]-2-[4-(oxetan-3-ylmethoxy)-phenyl]-acetamide] | 155
17 | CC1(COc2ccc(CC(=O)Nc3ccn(Cc4ccc(C#N)c(F)c4)n3)cc2)COC1 [Example 263, N-[1-(4-Cyano-3-fluoro-benzyl)-1H-pyrazol-3-yl]-2-[4-(3-methyl-oxetan-3-ylmethoxy)-phenyl]-acetamide] | 97
18 | CC(C)(C)c1ccc(CC(=O)Nc2ccn(Cc3ccc(C#N)c(F)c3)n2)cc1 [Example 264, 2-(4-tert-Butyl-phenyl)-N-[1-(4-cyano-3-fluoro-benzyl)-1H-pyrazol-3-yl]-acetamide] | 5.4
19 | N#Cc1ccc(Cn2ccc(NC(=O)Cc3ccc(C4(C(F)(F)F)CC4)cc3)n2)cc1F [Example 265, N-[1-(4-Cyano-3-fluoro-benzyl)-1H-pyrazol-3-yl]-2-[4-(1-trifluoromethyl-cyclopropyl)-phenyl]-acetamide] | 15
20 | CC(C)c1ccc(CC(=O)Nc2ccn(Cc3ccc(C#N)c(F)c3)n2)cc1 [Example 266, N-[1-(4-Cyano-3-fluoro-benzyl)-1H-pyrazol-3-yl]-2-(4-isopropyl-phenyl)-acetamide] | 6.6
21 | Cn1ncc2cc(CC(=O)Nc3ccn(Cc4ccc(F)c(C#N)c4)n3)ccc21 [Example 268, N-[1-(3-Cyano-4-fluoro-benzyl)-1H-pyrazol-3-yl]-2-(1-methyl-1H-indazol-5-yl)-acetamide] | 35
22 | N#Cc1ccc(Cn2ccc(NC(=O)Cc3ccc(OC4CC(F)(F)C4)cc3)n2)cc1 [Example 273, N-[1-(4-Cyano-benzyl)-1H-pyrazol-3-yl]-2-[4-(3,3-difluoro-cyclobutoxy)-phenyl]-acetamide] | 35
23 | N#Cc1ccc(Cn2ccc(NC(=O)Cc3ccc(OC4CC(F)(F)C4)cc3)n2)nc1 [Example 274, N-[1-(5-Cyano-pyridin-2-ylmethyl)-1H-pyrazol-3-yl]-2-[4-(3,3-difluoro-cyclobutoxy)-phenyl]-acetamide] | 133
24 | N#Cc1ccc(Cn2ccc(NC(=O)Cc3ccc(N4CCCC4)nc3)n2)nc1 [Example 276, N-[1-(5-Cyano-pyridin-2-ylmethyl)-1H-pyrazol-3-yl]-2-(6-pyrrolidin-1-yl-pyridin-3-yl)-acetamide] | 188

Continued by falling IC50, values first:

Row | IC50 [nM] | Compound
25 | 1810 | N#Cc1ccc(Cn2ccc(NC(=O)Cc3ccc(OCC4(F)COC4)cc3)n2)nc1 [Example 248, N-[1-(5-Cyano-pyridin-2-ylmethyl)-1H-pyrazol-3-yl]-2-[4-(3-fluoro-oxetan-3-ylmethoxy)-phenyl]-acetamide]
26 | 934 | COC1(c2ccc(CC(=O)Nc3ccn(Cc4ccc(F)c(F)c4)n3)cn2)COC1 [Example 258, N-[1-(3,4-Difluoro-benzyl)-1H-pyrazol-3-yl]-2-[6-(3-methoxy-oxetan-3-yl)-pyridin-3-yl]-acetamide]
27 | 303 | N#Cc1ccc(Cn2ccc(NC(=O)Cc3ccc(OC4COC4)cc3)n2)cc1 [Example 251, N-[1-(4-Cyano-benzyl)-1H-pyrazol-3-yl]-2-[4-(oxetan-3-yloxy)-phenyl]-acetamide]
28 | 251 | N#Cc1ccc(Cn2ccc(NC(=O)Cc3ccc(OCC4(F)COC4)cc3)n2)cc1 [Example 256, N-[1-(4-Cyano-benzyl)-1H-pyrazol-3-yl]-2-[4-(3-fluoro-oxetan-3-ylmethoxy)-phenyl]-acetamide]
29 | 162 | N#Cc1cc(Cn2ccc(NC(=O)Cc3ccc(OC4COC4)cc3)n2)ccc1F [Example 269, N-[1-(3-Cyano-4-fluoro-benzyl)-1H-pyrazol-3-yl]-2-[4-(oxetan-3-yloxy)-phenyl]-acetamide]
30 | 100 | N#Cc1ccc(Cn2ccc(NC(=O)Cc3ccc(OC4COC4)cc3)n2)cc1F [Example 254, N-[1-(4-Cyano-3-fluoro-benzyl)-1H-pyrazol-3-yl]-2-[4-(oxetan-3-yloxy)-phenyl]-acetamide]
31 | 90 | N#Cc1cc(Cn2ccc(NC(=O)Cc3ccc(OCC4(F)COC4)cc3)n2)ccc1F [Example 267, N-[1-(3-Cyano-4-fluoro-benzyl)-1H-pyrazol-3-yl]-2-[4-(3-fluoro-oxetan-3-ylmethoxy)-phenyl]-acetamide]
32 | 56 | Cn1ncc2cc(CC(=O)Nc3ccn(Cc4ccc(C#N)cc4)n3)ccc21 [Example 252, N-[1-(4-Cyano-benzyl)-1H-pyrazol-3-yl]-2-(1-methyl-1H-indazol-5-yl)-acetamide]
33 | 51 | N#Cc1cc(Cn2ccc(NC(=O)Cc3ccc(C4(F)COC4)cc3)n2)ccc1F [Example 270, N-[1-(3-Cyano-4-fluoro-benzyl)-1H-pyrazol-3-yl]-2-[4-(3-fluoro-oxetan-3-yl)-phenyl]-acetamide]
34 | 18 | O=C(Cc1ccc(-c2ncon2)cc1)Nc1ccn(Cc2ccc(F)c(F)c2)n1 [Example 236, N-[1-(3,4-Difluoro-benzyl)-1H-pyrazol-3-yl]-2-(4-[1,2,4]oxadiazol-3-yl-phenyl)-acetamide]
35 | 14 | N#Cc1ccc(Cn2ccc(NC(=O)Cc3ccc(N4CCCC4)nc3)n2)cc1F [Example 275, N-[1-(4-Cyano-3-fluoro-benzyl)-1H-pyrazol-3-yl]-2-(6-pyrrolidin-1-yl-pyridin-3-yl)-acetamide]
36 | 3.4 | CC(C)(C)c1ccc(CC(=O)Nc2ccn(Cc3ccc(C#N)cc3)n2)cc1 [Example 271, 2-(4-tert-Butyl-phenyl)-N-[1-(4-cyano-benzyl)-1H-pyrazol-3-yl]-acetamide]
37 | 3.1 | Cc1cn(C)c2ccc(CC(=O)Nc3ccn(Cc4ccc(F)c(F)c4)n3)cc12 [Example 260, N-[1-(3,4-Difluoro-benzyl)-1H-pyrazol-3-yl]-2-(1,3-dimethyl-1H-indol-5-yl)-acetamide]
38 | 2.4 | CN(C)c1ccc(CC(=O)Nc2ccn(Cc3ccc(Br)cc3)n2)cc1 [Example 239, N-[1-(4-Bromo-benzyl)-1H-pyrazol-3-yl]-2-(4-dimethylamino-phenyl)-acetamide]
